Assay results reported in paper PMC9179928 (Journal of medicinal chemistry, 2021).

Key:
EV-D68 US/KY/14-18953 = assay: CPE assay, EV-D68 US/KY/14-18953 in RD cells; assay type: cell-based, enterovirus D68; conditions: vs 7a
[1] = tested on: EV-D68 and EV-A71 strains; assay: organism not typed; assay type: cell-based; conditions: for EC50: RD, read-out: EC50 values against all EV-D68 and EV-A71 strains tested; for selectivity index over all EV-D68 and EV-A71 strains tested: strains of Table 2, RD cells
EV-D68 2C-D183V mutant = assay type: binding; conditions: 7d at 100 μM
EV-D68 2C-D323G mutant = assay type: binding; conditions: 7d at 100 μM
[2] = tested on: EV-D68 2C-D183V/D323G double mutant; assay type: binding; conditions: 7d at 100 μM
EV-A71 2C protein = assay type: binding; conditions: 7d at 10, 30, 100 and 300 μM
CVB3 2C protein = CVB3 2C protein (Coxsackievirus B3, UniProt P03313); assay type: binding; conditions: 7d at 10, 30, 100 and 300 μM
EV-D68 US/MO/14-18947 [3] = assay: Plaque assay, EV-D68 US/MO/14-18947 in RD cells; assay type: cell-based, enterovirus D68; conditions: at 3 μM, positive control
EV-D68 US/MO/14-18947 [4] = assay: Immunofluorescence assay; assay type: cell-based, enterovirus D68; conditions: at 50 μM, SH-SY5Y cells, positive control

With `CC(C)n1ncc2c(C(=O)NCCN3CCCC3)cc(C3CC3)nc21` [7b, 6-cyclopropyl-1-(propan-2-yl)-N-[2-(pyrrolidin-1-yl)ethyl]-1H-pyrazolo[3,4-b]pyridine-4-carboxamide] as the compound, how does the “improvement in antiviral efficacy compared to the original hit 7a against EV-D68 virus” value (EV-D68 US/KY/14-18953) read?
The value was “more than 100 fold”.

For `CC(C)n1ncc2c(C(=O)NCCN(C)C)cc(C3CC3)nc21` [7d, 6-cyclopropyl-N-[2-(dimethylamino)ethyl]-1-(propan-2-yl)-1H-pyrazolo[3,4-b]pyridine-4-carboxamide], which “improvement in antiviral efficacy compared to the original hit 7a against EV-D68 virus” value (EV-D68 US/KY/14-18953) is on record?
Its value is “more than 100 fold”.

And the EC50 [1]?
Its EC50 is 40 to 100 nM.

And the “ΔTm, 2C-D183V mutant” value (EV-D68 2C-D183V mutant)?
Its value is 0.01 °C.

And the “ΔTm, 2C-D323G mutant” value (EV-D68 2C-D323G mutant)?
Its value is 3.92 °C.

And the “ΔTm, 2C-D183V/D323G double mutant” value [2]?
Its value is 0.61 °C.

What about the “binding to EV-A71 2C protein” value (EV-A71 2C protein) of the same compound?
The value was “dose-dependent binding”.

What about the “binding to CVB3 2C protein” value (CVB3 2C protein) of the same compound?
Its value is “dose-dependent binding”.

Which “improvement in antiviral efficacy compared to the original hit 7a against EV-D68 virus” value (EV-D68 US/KY/14-18953) does the source give for `CC(CN(C)C)NC(=O)c1cc(C2CC2)nc2c1cnn2C(C)C` (stereo not drawn) [7f, 6-cyclopropyl-N-[1-(dimethylamino)propan-2-yl]-1-(propan-2-yl)-1H-pyrazolo[3,4-b]pyridine-4-carboxamide] here?
Its value is “more than 100 fold”.

`CC(C)n1ncc2c(C(=O)NC3CCN(C)C3)cc(C3CC3)nc21` (stereo not drawn) [7g, 6-cyclopropyl-N-(1-methylpyrrolidin-3-yl)-1-(propan-2-yl)-1H-pyrazolo[3,4-b]pyridine-4-carboxamide] was tested. Which “improvement in antiviral efficacy compared to the original hit 7a against EV-D68 virus” value (EV-D68 US/KY/14-18953) did it give?
The value was “more than 100 fold”.

`CNCCNC(=O)c1cc(C2CC2)nc2c1cnn2C(C)C` [7h, 6-cyclopropyl-N-[2-(methylamino)ethyl]-1-(propan-2-yl)-1H-pyrazolo[3,4-b]pyridine-4-carboxamide] was tested. Which “improvement in antiviral efficacy compared to the original hit 7a against EV-D68 virus” value (EV-D68 US/KY/14-18953) did it give?
The value was “more than 100 fold”.

What about the EC50 [1] of the same compound?
Its EC50 is 60 to 300 nM.

What about the “selectivity index over all EV-D68 and EV-A71 strains tested” value [1] of the same compound?
The value was “over 700”.

`CC(C)c1cc(C(=O)NCCN(C)C)c2cnn(C(C)C)c2n1` [10a, N-[2-(dimethylamino)ethyl]-1,6-bis(propan-2-yl)-1H-pyrazolo[3,4-b]pyridine-4-carboxamide] was tested. Which EC50 [1] did it give?
The EC50 was 60 to 300 nM.

What about the “selectivity index over all EV-D68 and EV-A71 strains tested” value [1] of the same compound?
The value was “over 700”.

Which “inhibition of plaque formation” value (EV-D68 US/MO/14-18947 [3]) does the source give for `CCC[C@H](NC(=O)[C@@H]1[C@H]2CCC[C@H]2CN1C(=O)[C@@H](NC(=O)[C@@H](NC(=O)c1cnccn1)C1CCCCC1)C(C)(C)C)C(=O)C(=O)NC1CC1` [Telaprevir] here?
Its value is “complete inhibition of plaque formation”.

For `Cc1cc(C(=O)NCCN(C)C)c2c(C)nn(C(C)(C)C)c2n1` [compound 19, 1-tert-butyl-N-[2-(dimethylamino)ethyl]-3,6-dimethyl-1H-pyrazolo[3,4-b]pyridine-4-carboxamide], which EC50 [1] is on record?
The EC50 was 400 to 7400 nM.

`Cc1cc(CCCOc2c(C)cc(-c3noc(C(F)(F)F)n3)cc2C)on1` [pleconaril] was tested. Which “viral replication (VP1 fluorescence signal)” value (EV-D68 US/MO/14-18947 [4]) did it give?
Its value is “completely abolished viral replication”.
